Data set [1] deals with Mouse fibroblast cells (ATCC CRL-10225). Put plainly: Glucose and lactate metabolic rate of fibroblast cells exposed to toxicants in 24-well plate. The note with it: 6 hours; for glucose metabolic rate / lactate metabolic rate: different concentrations; for cell death on exposure: trypan blue exclusion.
The test system is the same in data set [2]. In kind it is cell-based.

Molecules are shown by their SMILES.

Take `O=[N+]([O-])c1ccc(O)c([N+](=O)[O-])c1` [2,4-dinitrophenol]: in data set [1], the glucose metabolic rate result is listed as “opposite impact”, the lactate metabolic rate result was “opposite impact” and the “cell death on exposure” value is “not observed”. Moreover, in data set [2], the “effect on medium acidification rate at low concentrations” value is given as “stimulate” and the “effect on medium acidification rate with concentration increasing” value was “stimulation effects become weak until inhibition effects are observed”.
As to `[F-].[Na+]` [fluoride, sodium fluoride], in data set [1], the glucose metabolic rate entry is given as “inhibited in concentration dependent manner” and the lactate metabolic rate entry is on record as “inhibited in concentration dependent manner”. In addition, the “cell death on exposure” value in data set [1] (concentration 10 mM) is given as “all cells died”.

Values taken from US20070015132A1 (priority 2001, published 2007).
